Experimental data published in ChEMBL document CHEMBL2321687, “Identification of a novel arylpiperazine scaffold for fatty acid amide hydrolase inhibition with improved drug disposition properties” (Bioorg Med Chem Lett, 2013).

Molecular target: T1, Fatty-acid amide hydrolase 1 (Mus musculus, UniProt O08914)
T1 sequence (O08914 whole entry): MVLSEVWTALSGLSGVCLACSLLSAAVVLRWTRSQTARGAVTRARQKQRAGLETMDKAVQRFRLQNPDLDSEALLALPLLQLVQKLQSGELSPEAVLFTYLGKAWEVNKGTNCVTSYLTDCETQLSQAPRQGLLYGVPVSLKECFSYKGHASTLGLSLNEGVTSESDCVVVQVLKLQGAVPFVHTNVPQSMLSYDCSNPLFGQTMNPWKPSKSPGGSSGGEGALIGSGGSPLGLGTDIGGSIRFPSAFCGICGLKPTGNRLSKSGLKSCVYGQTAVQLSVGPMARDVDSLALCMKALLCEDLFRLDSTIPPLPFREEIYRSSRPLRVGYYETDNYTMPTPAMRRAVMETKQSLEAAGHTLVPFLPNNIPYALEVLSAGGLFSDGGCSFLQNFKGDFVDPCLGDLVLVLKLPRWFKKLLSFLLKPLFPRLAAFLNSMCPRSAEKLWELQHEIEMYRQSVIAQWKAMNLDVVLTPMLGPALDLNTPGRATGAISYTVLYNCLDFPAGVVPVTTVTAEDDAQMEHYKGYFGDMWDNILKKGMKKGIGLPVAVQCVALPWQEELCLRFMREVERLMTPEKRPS
Assay: Inhibition of FAAH in mouse brain homogenate using [3Hethanolamine]AEA as substrate incubated for 20 mins prior to substrate addition measured after 15 mins by beta counting analysis
Format: tissue-based

Compound: Fc1ccc(OCCCCOc2cccc(N3CCNCC3)c2)cc1
- Ki: > 500 nM

Compound: NC(=O)c1ccn(-c2cccc(N3CCN(C(=O)NCCCCCCc4ccccc4)CC3)c2)c1
- Ki: > 500 nM

Compound: CCCCOc1ccc(NC(=O)Oc2cccc(N3CCNCC3)c2)cc1
- Ki: > 500 nM
